Assay results from ChEMBL document CHEMBL5291721, “A preclinical secondary pharmacology resource illuminates target-adverse drug reaction associations of marketed drugs” (Nat Commun, 2023).

Key:
Estrogen receptor = target: T1, Estrogen receptor (Homo sapiens, UniProt P03372)
T1 sequence (P03372 whole entry): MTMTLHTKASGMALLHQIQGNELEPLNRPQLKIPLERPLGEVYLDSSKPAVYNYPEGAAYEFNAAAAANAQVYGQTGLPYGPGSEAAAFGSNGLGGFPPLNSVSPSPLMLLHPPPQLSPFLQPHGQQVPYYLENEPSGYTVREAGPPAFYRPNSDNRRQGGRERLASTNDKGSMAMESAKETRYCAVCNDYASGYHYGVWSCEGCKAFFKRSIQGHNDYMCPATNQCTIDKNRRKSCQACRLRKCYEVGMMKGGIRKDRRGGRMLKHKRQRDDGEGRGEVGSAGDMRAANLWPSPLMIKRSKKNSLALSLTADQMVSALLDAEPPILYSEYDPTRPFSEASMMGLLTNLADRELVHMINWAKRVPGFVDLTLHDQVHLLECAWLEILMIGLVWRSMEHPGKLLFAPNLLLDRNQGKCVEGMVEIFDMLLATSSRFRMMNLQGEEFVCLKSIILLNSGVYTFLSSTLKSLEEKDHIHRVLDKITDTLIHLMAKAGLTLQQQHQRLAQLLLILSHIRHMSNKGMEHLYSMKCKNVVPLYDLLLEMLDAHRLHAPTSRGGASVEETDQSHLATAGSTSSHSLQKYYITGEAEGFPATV

[1] = target: T2, Peroxisome proliferator-activated receptor gamma (Homo sapiens, UniProt P37231); type: functional
T2 sequence (P37231 whole entry): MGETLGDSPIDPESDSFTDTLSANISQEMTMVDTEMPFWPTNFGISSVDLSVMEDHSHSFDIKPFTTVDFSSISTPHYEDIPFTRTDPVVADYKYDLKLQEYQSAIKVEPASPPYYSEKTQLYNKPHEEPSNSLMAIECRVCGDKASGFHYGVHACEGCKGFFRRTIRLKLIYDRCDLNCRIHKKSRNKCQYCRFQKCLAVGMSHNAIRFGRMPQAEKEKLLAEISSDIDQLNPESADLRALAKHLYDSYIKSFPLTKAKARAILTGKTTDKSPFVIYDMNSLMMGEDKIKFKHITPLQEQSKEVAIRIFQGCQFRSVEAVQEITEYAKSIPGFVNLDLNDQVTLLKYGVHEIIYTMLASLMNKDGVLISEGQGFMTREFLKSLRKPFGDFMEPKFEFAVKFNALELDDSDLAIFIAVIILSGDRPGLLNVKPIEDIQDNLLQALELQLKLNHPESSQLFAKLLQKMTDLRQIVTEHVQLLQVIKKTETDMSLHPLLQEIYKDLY

[2] = target: Vascular endothelial growth factor receptor 2 (Homo sapiens, UniProt P35968); type: functional
[3] = target: T3, Endothelin receptor type B (Homo sapiens, UniProt P24530)
T3 sequence (P24530 whole entry): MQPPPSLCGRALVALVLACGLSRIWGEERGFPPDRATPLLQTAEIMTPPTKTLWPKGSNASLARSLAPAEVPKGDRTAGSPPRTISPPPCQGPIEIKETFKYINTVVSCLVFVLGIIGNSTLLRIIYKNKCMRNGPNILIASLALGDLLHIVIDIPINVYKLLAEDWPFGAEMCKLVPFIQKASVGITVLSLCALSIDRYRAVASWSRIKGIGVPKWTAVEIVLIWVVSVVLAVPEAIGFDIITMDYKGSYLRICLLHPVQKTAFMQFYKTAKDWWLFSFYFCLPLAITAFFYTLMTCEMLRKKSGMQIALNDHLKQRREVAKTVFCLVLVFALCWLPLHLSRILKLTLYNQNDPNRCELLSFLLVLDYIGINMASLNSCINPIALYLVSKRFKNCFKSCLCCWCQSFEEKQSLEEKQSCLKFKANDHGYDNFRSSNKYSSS

[4] = target: Neurotensin receptor type 1 (Homo sapiens, UniProt P30989)
[5] = target: T4, Corticotropin-releasing factor receptor 2 (Homo sapiens, UniProt Q13324)
T4 sequence (Q13324 whole entry): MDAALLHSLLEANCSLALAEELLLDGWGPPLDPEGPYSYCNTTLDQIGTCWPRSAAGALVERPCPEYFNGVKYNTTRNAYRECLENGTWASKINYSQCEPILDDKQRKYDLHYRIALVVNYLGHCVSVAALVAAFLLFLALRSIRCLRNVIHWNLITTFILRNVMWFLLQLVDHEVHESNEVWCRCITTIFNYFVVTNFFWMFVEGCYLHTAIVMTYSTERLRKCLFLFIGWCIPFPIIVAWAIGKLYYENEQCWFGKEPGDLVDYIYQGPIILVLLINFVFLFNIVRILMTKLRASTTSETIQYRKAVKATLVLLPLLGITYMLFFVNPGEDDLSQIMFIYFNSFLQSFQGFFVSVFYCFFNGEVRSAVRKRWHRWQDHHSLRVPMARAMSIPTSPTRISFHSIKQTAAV

[6] = target: T5, Neuropeptide Y receptor type 2 (Homo sapiens, UniProt P49146)
T5 sequence (P49146 whole entry): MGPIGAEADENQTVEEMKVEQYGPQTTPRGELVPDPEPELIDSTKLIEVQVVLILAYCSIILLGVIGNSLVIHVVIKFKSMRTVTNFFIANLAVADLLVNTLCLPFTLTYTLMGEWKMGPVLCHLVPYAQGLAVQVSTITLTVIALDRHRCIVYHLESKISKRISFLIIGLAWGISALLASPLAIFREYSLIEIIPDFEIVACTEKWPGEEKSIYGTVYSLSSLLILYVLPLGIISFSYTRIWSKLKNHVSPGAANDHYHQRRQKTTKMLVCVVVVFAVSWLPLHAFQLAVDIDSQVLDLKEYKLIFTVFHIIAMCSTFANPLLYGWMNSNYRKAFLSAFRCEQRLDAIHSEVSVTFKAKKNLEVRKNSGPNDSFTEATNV

[7] = target: T6, Corticotropin-releasing factor receptor 1 (Homo sapiens, UniProt P34998)
T6 sequence (P34998 whole entry): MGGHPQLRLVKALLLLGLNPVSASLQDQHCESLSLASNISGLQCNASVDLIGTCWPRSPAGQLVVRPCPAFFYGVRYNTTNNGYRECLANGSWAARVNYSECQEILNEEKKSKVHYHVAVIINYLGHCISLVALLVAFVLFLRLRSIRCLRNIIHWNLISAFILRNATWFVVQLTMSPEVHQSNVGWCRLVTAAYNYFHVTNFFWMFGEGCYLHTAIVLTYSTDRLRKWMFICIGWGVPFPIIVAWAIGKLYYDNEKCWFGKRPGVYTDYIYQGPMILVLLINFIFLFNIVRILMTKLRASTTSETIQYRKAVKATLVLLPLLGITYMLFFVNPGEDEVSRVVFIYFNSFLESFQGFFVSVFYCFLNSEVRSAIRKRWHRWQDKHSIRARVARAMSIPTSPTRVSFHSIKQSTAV
Note: assay procedure not described here.

Sequence of Vascular endothelial growth factor receptor 2 (P35968 whole entry): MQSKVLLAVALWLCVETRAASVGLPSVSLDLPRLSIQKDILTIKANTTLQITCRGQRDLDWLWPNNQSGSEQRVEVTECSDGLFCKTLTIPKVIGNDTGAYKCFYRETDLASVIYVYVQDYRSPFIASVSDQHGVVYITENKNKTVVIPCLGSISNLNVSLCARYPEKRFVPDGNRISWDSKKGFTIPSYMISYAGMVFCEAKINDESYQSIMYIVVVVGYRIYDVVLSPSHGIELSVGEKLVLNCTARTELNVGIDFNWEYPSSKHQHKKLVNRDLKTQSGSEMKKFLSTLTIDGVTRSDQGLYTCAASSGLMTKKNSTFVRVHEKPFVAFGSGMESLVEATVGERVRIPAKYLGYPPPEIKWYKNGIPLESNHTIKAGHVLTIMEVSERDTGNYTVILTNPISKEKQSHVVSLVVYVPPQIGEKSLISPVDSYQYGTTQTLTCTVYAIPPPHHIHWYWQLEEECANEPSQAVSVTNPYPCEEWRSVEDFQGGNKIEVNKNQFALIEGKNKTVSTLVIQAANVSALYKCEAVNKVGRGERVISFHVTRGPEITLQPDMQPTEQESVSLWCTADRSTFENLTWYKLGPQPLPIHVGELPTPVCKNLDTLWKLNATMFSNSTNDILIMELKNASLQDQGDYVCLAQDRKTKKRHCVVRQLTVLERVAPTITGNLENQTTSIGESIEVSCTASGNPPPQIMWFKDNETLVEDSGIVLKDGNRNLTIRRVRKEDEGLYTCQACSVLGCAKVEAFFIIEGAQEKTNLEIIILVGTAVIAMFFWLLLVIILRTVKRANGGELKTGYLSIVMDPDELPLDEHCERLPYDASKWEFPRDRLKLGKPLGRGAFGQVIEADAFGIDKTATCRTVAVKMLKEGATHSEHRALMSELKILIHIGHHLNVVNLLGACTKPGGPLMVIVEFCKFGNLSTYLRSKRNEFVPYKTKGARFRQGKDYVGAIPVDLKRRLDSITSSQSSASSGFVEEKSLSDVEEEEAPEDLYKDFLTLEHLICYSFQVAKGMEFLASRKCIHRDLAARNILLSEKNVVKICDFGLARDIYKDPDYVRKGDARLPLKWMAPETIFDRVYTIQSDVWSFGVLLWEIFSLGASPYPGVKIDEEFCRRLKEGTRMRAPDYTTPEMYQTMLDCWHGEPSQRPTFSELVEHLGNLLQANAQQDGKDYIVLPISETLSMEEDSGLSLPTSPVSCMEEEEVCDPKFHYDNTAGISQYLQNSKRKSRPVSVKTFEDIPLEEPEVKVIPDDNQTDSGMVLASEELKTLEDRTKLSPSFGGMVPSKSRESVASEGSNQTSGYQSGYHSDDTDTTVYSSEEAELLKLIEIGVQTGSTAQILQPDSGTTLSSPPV
Sequence of Neurotensin receptor type 1 (P30989 whole entry): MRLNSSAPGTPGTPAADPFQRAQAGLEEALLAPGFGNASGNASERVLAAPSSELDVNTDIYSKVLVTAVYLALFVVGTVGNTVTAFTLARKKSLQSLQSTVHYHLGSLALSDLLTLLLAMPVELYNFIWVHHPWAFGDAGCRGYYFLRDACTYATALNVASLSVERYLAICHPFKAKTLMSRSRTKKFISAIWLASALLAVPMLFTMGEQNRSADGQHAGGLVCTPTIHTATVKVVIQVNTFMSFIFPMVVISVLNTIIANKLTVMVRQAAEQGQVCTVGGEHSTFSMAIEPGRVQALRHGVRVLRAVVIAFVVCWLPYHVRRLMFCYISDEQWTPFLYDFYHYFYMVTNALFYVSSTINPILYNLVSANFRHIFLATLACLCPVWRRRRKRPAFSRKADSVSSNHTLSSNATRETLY

SMILES	AC50 (Estrogen receptor)	AC50 [3]	AC50 [4]	AC50 [5]	AC50 [6]	AC50 [7]	AC50 [1]	AC50 [2]
CN(C)CCC=C1c2ccccc2C(C)(C)c2ccccc21	–	–	–	–	–	–	> 30 µM	> 30 µM
CC[C@H]1OC(=O)[C@H](C)[C@@H](O[C@H]2C[C@@](C)(OC)[C@@H](O)[C@H](C)O2)[C@H](C)[C@@H](O[C@@H]2O[C@H](C)C[C@H](N(C)C)[C@H]2O)[C@](C)(O)C[C@@H](C)CN(C)[C@H](C)[C@@H](O)[C@]1(C)O [AZITHROMYCIN]	> 30 µM	> 30 µM	> 30 µM	> 30 µM	> 30 µM	> 30 µM	–	–
Cc1ccc(-c2cc(C(F)(F)F)nn2-c2ccc(S(N)(=O)=O)cc2)cc1 [CELECOXIB]	> 30 µM	> 30 µM	> 30 µM	> 30 µM	> 30 µM	> 30 µM	–	–
CN(C)CCC(c1ccc(Cl)cc1)c1ccccn1 (configuration not stated) [CHLORPHENIRAMINE]	–	> 30 µM	> 30 µM	> 30 µM	> 30 µM	> 30 µM	–	–
CN(C)/N=N/c1[nH]cnc1C(N)=O [DACARBAZINE]	> 10 µM	–	–	–	–	–	–	–
O=C1Nc2ccc(Cl)cc2[C@@](C#CC2CC2)(C(F)(F)F)O1 [EFAVIRENZ]	> 30 µM	–	–	–	–	–	> 30 µM	–
O=C(OCC(O)CO)c1ccccc1Nc1ccnc2cc(Cl)ccc12 (configuration not stated) [GLAFENINE]	–	–	–	–	–	–	> 30 µM	13 µM
C[N+]1(C)CCC(OC(=O)C(O)(c2ccccc2)C2CCCC2)C1 (configuration not stated) [GLYCOPYRRONIUM BROMIDE]	> 30 µM	–	–	–	–	–	–	–
c1ccc([C@H]2CN3CCSC3=N2)cc1 [LEVAMISOLE]	–	–	–	–	–	–	> 30 µM	> 30 µM

More lines, main results first:

AC50 (Estrogen receptor)	AC50 [3]	AC50 [4]	AC50 [5]	AC50 [6]	AC50 [7]	SMILES	AC50 [1]	AC50 [2]
> 30 µM	–	–	–	–	–	CCCCN1C[C@H](O)[C@@H](O)[C@H](O)[C@H]1CO	–	–
> 30 µM	> 30 µM	> 30 µM	> 30 µM	> 30 µM	> 30 µM	CCOC(=O)[C@H](CCc1ccccc1)N[C@@H](C)C(=O)N1[C@H](C(=O)O)C[C@@H]2CCC[C@@H]21	–	–
> 30 µM	–	–	–	–	–	COc1cc2nc(N(C)CCCNC(=O)C3CCCO3)nc(N)c2cc1OC (configuration not stated) [ALFUZOSIN]	–	–
> 30 µM	> 30 µM	> 30 µM	> 30 µM	> 30 µM	> 30 µM	CC1=C(C(=O)O)N2C(=O)[C@@H](NC(=O)[C@H](N)c3ccccc3)[C@H]2SC1 [CEPHALEXIN ANHYDROUS]	–	–
–	> 30 µM	> 30 µM	> 30 µM	> 30 µM	> 30 µM	C[C@]12CCC(=O)C=C1CC[C@@H]1[C@@H]2[C@@H](O)C[C@@]2(C)[C@H]1CC[C@]2(O)C(=O)CO [HYDROCORTISONE]	–	–
> 30 µM	> 30 µM	> 30 µM	> 30 µM	> 30 µM	> 30 µM	CCC(C)n1ncn(-c2ccc(N3CCN(c4ccc(OCC5COC(Cn6cncn6)(c6ccc(Cl)cc6Cl)O5)cc4)CC3)cc2)c1=O (configuration not stated) [ITRACONAZOLE]	–	–
